Assay results from the NIST ThermoML archive (doi:10.1016/j.tca.2016.07.005).
± gives the expanded uncertainty stated by the source.

Experiments:
[1] = 101.3 kPa, Liquid; for viscosity: Concentric cylinders viscometry; for mass density: Vibrating tube method
[2] = xn = mol fraction of the nth substance listed; conditions: 101.3 kPa, Liquid, x1 = 1; for viscosity: Concentric cylinders viscometry; for mass density: Vibrating tube method

CCCC[n+]1ccn(C)c1.O=S(=O)([N-]S(=O)(=O)C(F)(F)F)C(F)(F)F
viscosity ([1]; 293.15 K): 64 ± 6.4 mPa·s
mass density ([1]; 293.15 K): 1441.2 ± 2.1 kg/m3
viscosity ([1]; 298.15 K): 49.5 ± 5 mPa·s
mass density ([1]; 298.15 K): 1436.4 ± 2.1 kg/m3
viscosity ([1]; 303.15 K): 39 ± 3.9 mPa·s
mass density ([1]; 303.15 K): 1431.5 ± 2.1 kg/m3
viscosity ([1]; 313.15 K): 26.7 ± 2.7 mPa·s
mass density ([1]; 313.15 K): 1421.9 ± 2.1 kg/m3
viscosity ([1]; 323.15 K): 20.1 ± 2 mPa·s
mass density ([1]; 323.15 K): 1412.4 ± 2.1 kg/m3
viscosity ([1]; 333.15 K): 15.5 ± 1.6 mPa·s
mass density ([1]; 333.15 K): 1402.9 ± 2.1 kg/m3
viscosity ([1]; 343.15 K): 12.4 ± 1.2 mPa·s
mass density ([1]; 343.15 K): 1393.5 ± 2.1 kg/m3

CCCC[n+]1ccn(C)c1.O=S(=O)([N-]S(=O)(=O)C(F)(F)F)C(F)(F)F + O=S1(=O)CCCC1
viscosity ([2]; 293.15 K): 64 ± 6.4 mPa·s
mass density ([2]; 293.15 K): 1441.2 ± 2.1 kg/m3
viscosity ([2]; 298.15 K): 49.5 ± 5 mPa·s
mass density ([2]; 298.15 K): 1436.4 ± 2.1 kg/m3
viscosity ([2]; 303.15 K): 39 ± 3.9 mPa·s
mass density ([2]; 303.15 K): 1431.5 ± 2.1 kg/m3
viscosity ([2]; 313.15 K): 26.7 ± 2.7 mPa·s
mass density ([2]; 313.15 K): 1421.9 ± 2.1 kg/m3
viscosity ([2]; 323.15 K): 20.1 ± 2 mPa·s
mass density ([2]; 323.15 K): 1412.4 ± 2.1 kg/m3
viscosity ([2]; 333.15 K): 15.5 ± 1.6 mPa·s
mass density ([2]; 333.15 K): 1402.9 ± 2.1 kg/m3
viscosity ([2]; 343.15 K): 12.4 ± 1.2 mPa·s
mass density ([2]; 343.15 K): 1393.5 ± 2.1 kg/m3

OCC(O)CO [glycerol]
viscosity ([1]; 313.15 K): 303 ± 31 mPa·s
mass density ([1]; 313.15 K): 1249 ± 2 kg/m3
viscosity ([1]; 323.15 K): 139.3 ± 14 mPa·s
mass density ([1]; 323.15 K): 1242.4 ± 2 kg/m3
viscosity ([1]; 333.15 K): 85.5 ± 8.6 mPa·s
mass density ([1]; 333.15 K): 1235.7 ± 2 kg/m3
viscosity ([1]; 343.15 K): 50.5 ± 5.1 mPa·s
mass density ([1]; 343.15 K): 1228.9 ± 2 kg/m3
viscosity ([1]; 353.15 K): 31.2 ± 3.1 mPa·s
mass density ([1]; 353.15 K): 1221.9 ± 2 kg/m3
viscosity ([1]; 363.15 K): 19.9 ± 2 mPa·s
mass density ([1]; 363.15 K): 1214.8 ± 2 kg/m3

OCC(O)CO [glycerol] + O=S1(=O)CCCC1
viscosity ([2]; 313.15 K): 303 ± 31 mPa·s
mass density ([2]; 313.15 K): 1249 ± 2 kg/m3
viscosity ([2]; 323.15 K): 139.3 ± 14 mPa·s
mass density ([2]; 323.15 K): 1242.4 ± 2 kg/m3
viscosity ([2]; 333.15 K): 85.5 ± 8.6 mPa·s
mass density ([2]; 333.15 K): 1235.7 ± 2 kg/m3
viscosity ([2]; 343.15 K): 50.5 ± 5.1 mPa·s
mass density ([2]; 343.15 K): 1228.9 ± 2 kg/m3
viscosity ([2]; 353.15 K): 31.2 ± 3.1 mPa·s
mass density ([2]; 353.15 K): 1221.9 ± 2 kg/m3
viscosity ([2]; 363.15 K): 19.9 ± 2 mPa·s
mass density ([2]; 363.15 K): 1214.8 ± 2 kg/m3

O=S1(=O)CCCC1 [sulfolane]
viscosity ([1]; 298.15 K): 11.9 ± 1.2 mPa·s
mass density ([1]; 298.15 K): 1266.4 ± 2 kg/m3
viscosity ([1]; 303.15 K): 10.5 ± 1.1 mPa·s
mass density ([1]; 303.15 K): 1259.4 ± 2 kg/m3
viscosity ([1]; 313.15 K): 8.1 ± 0.8 mPa·s
mass density ([1]; 313.15 K): 1251.7 ± 2 kg/m3
viscosity ([1]; 323.15 K): 6.4 ± 0.6 mPa·s
mass density ([1]; 323.15 K): 1244 ± 2 kg/m3
viscosity ([1]; 333.15 K): 5.2 ± 0.5 mPa·s
mass density ([1]; 333.15 K): 1235.4 ± 2 kg/m3
viscosity ([1]; 343.15 K): 4.3 ± 0.4 mPa·s
mass density ([1]; 343.15 K): 1225 ± 2 kg/m3
viscosity ([1]; 353.15 K): 3.7 ± 0.4 mPa·s
mass density ([1]; 353.15 K): 1215 ± 2 kg/m3
viscosity ([1]; 363.15 K): 3.2 ± 0.3 mPa·s
mass density ([1]; 363.15 K): 1206 ± 2 kg/m3
